# Measured values from patent publication US10765625B2, “Knottin-drug conjugates and methods of using the same” (THE BOARD OF TRUSTEES OF THE LELAND STANFORD JUNIOR …, priority 2016, dated 2020).
# Positions of bridges follow the written chain, without caps; N, C: chain ends. Non-standard residues stand in square brackets, D forms with d. Residues, ends and D or L forms follow the SMILES beside them. Orn(N3) = [N-]=[N+]=NCCC[C@H](N)C(=O)O
# What was measured:
# U87MG cells [1] = assay: Competition binding assay with AF488-labeled EETI-2.5F (AF488-1), flow cytometry; settings: for IC50: competition with 1 nM AF488-1, 4° C., 3 hours, read-out: IC50 (nM), binding affinity
# Method: Once the knottin-drug conjugates 5a-d were prepared, their binding affinity to U87MG glioblastoma cells, which are known to have elevated expression of tumor-associated integrins, was tested. […] To measure the relative binding affinities of knottins 1 and 2 and KDCs 5a-d, competition binding assays were performed using AlexaFluor 488-conjugated EETI-2.5F (AF488-1) as previously described (J. W. Kim, et al., J. Am. Chem. Soc. 2015, 137, 6-9). Cells (5×10^4 per sample) were detached with 0.05% Trypsin-EDTA, washed with IBB (25 mM Tris pH 7.4, 150 mM NaCl, 2 mM CaCl2, 1 mM MgCl2, 1 mM MnCl2, and 0.1% bovine serum albumin), and incubated with 1 nM AF488-1 and varying concentrations of competitors in 800 μL of IBB at 4° C. for 3 hours. The cells were washed twice with 800 μL of PBSA (phosphate buffered saline containing 0.1% bovine serum albumin) and the fluorescence of the surface-bound AF488-1 was determined using flow cytometry. The fluorescence was normalized to that of cells treated with AF488-1 alone to obtain the fraction bound. Half-maximal inhibitory concentration (IC50) values were determined by nonlinear regression analysis. Error bars represent the standard deviation of experiments performed in triplicate.
# U87MG cells [2] = assay: Cell proliferation, CCK-8 colorimetric assay; type: cell-based; settings: U87MG cells; for Potency / growth inhibition in U87MG cells (in words): 4 d; for EC50: 4 d incubation, vs untreated control, read-out: ED50 (nM), potency
# Method: (§1) U87MG, and PANC-1 cells were grown in Dulbecco's Modified Eagle Medium (DMEM) with 10% fetal bovine serum (FBS) and 1% penicillin/streptomycin. MDA-MB-468 cells were grown in DMEM and Ham's F-12 medium (DMEM/F12) with 10% FBS and 1% penicillin/streptomycin. A2780 and BxPC3 cells were grown in Roswell Park Memorial Institute medium (RPMI) 1640+L-glutamine, with 10% FBS and 1% penicillin/streptomycin. D270 cells were grown in MEM (Richter's modification, no phenol red) with 10% FBS and 0.1% Gentamicin. Unless otherwise specified, cells were incubated at 37° C., 5% CO2. Flow cytometry was performed using an EMD Millpore Guava EasyCyte 8HT flow cytometer and the resulting data were evaluated using FlowJo software provided by TreeStar, Inc. Cell proliferation was measured using the Dojindo Cell Counting Kit-8 by replacing the media in each well with 100 μL of media containing 10% WST-8. After incubation for 1 h at 37° C., absorbance, A, at 450 nm was measured with a BioTek Synergy H4 microtiter plate reader. The background signal of CCK-8 alone was subtracted from all samples. Cell proliferation was then expressed as a percentage of absorbance relative to the control of untreated cells (Equation 2). Nonlinear regression analysis was performed using GraphPad Prism.
# Next, the potency of each KDC was tested in a cell-proliferation experiment. […] Cells were seeded in a 96-well plate at a density of 2,500 cells per well and grown overnight at 37° C., 5% CO2 in DMEM with 10% FBS and 1% penicillin/streptomycin. Cells were subsequently treated with 100 μL of fresh media, containing varying concentrations of drug, protein, or protein-drug conjugate and incubated for 4 d at 37° C., 5% CO2. Cell proliferation was measured according to the method described in Section 1.3. Error bars represent the standard deviation of experiments performed in triplicate. […] Given that the linker must be cleaved to release free Gemcitabine in order for the payload to become active, the low potency of 5b can be explained by the greater stability of the carbamate group as compared to the other linkers tested.
# U87MG cells [3] = assay: Premature drug release study: cell proliferation (CCK-8) with hENT1 inhibitor 6 co-administered; type: cell-based; settings: for Fold Increase in ED50 in U87MG Cells: ED50 with 6 / ED50 without 6, minus 1
# Method: as §1
# The relative extent of premature drug-release in the cases of 5a, 5c, and 5d was next determined in order to identify the linker best-suited for delivering the drug payload intracellularly. An established technique for blocking the cellular uptake of Gemcitabine by using S (4-nitrobenzyl)-6-thioinosine (6) was employed, which is known to inhibit human equilibrative nucleoside transporters, such as hENT1. Because hENT1 is a critical regulator of the cellular internalization of Gemcitabine, it was reasoned that by inhibiting its activity with 6, the cytotoxic effect of any drug payload that was released in the extracellular environment could be diminished. It was anticipated that this would allow the distinction between KDCs that were potent due to the undesirable release of Gemcitabine outside of the cell from those that released Gemcitabine intracellularly (FIG. 6). The extent of premature drug release in the extracellular environment was studied by inhibiting activity of nucleoside transporters (such as hENT1) of U87MG cells through the use of the hENT1 inhibitor S-(4-nitrobenzyl)-6-thioinosine (6). […] In a similar fashion, it was expected that for KDCs which released a significant amount of the drug payload in the extracellular environment, an increase in the concentration of 6 should result in a concomitant increase in ED50 value.
# Media used to prepare varying concentrations of drug, protein, or protein-drug conjugate also contained varying concentrations of the hENT1 inhibitor, 6. Additionally, prior to treatment, cell were incubated at 37° C., 5% CO2 with fresh media containing the varying concentrations of 6 for 2 h. Cell proliferation was measured using the Cell Counting Kit-8 by replacing the media in each well with 100 μL of media containing 10% WST-8. After incubation for 1 h at 37° C., absorbance at 450 nm was measured with a Synergy H4 microtiter plate reader. ED50 values were determined by nonlinear regression analysis. Example dose-response curves for 3 (FIG. 7) and 5d (FIG. 8) are provided. Cell proliferation was measured according to the method described in Section 1.3. Error bars represent the standard deviation of experiments performed in triplicate.
# These values were normalized as Fold Increase in ED50 (defined in Equation 2) by dividing the ED50 of each drug when 6 was co-administered at concentration=C by the ED50 of that same drug when no 6 was added, then subtracting 1 (thus, a “0-fold increase” would mean no increase, while a “1-fold increase” would mean that the ED50 value had doubled). Fold Increase in ED50 for each drug at each concentration of 6 is provided in Table 5, and these values were used to generate FIG. 9.
# U87MG cells [4] = assay: Integrin-blocking competition: cell proliferation (CCK-8) after pre-treatment with EETI-2.5F (1); type: cell-based; settings: 1 μM 1, 3 h pre-treatment and co-treatment
# Method: as §1
# One possible explanation for the apparent hENT1-independence of 5d is that its route of internalization could be integrin-mediated. The role of integrin-binding in the biological potency and hENT1-independence of 5d was determined. A competition experiment was carried out in which U87MG cells were pre-treated with unconjugated EETI-2.5F (1) in order to block integrins on the cell surface. The role of integrin-binding was studied by measuring the proliferation of U87MG cells that had been pre-treated with EETI-2.5F (1) when exposed to increasing doses of 3 and KDCs 5a, 5c, and 5d. […] Media used to prepare varying concentrations of drug, protein, or protein-drug conjugate also contained 1 μM of 1. Prior to treatment, cells were incubated for 3 h at 37° C., 5% CO2 with fresh media containing 1 μM 1. After this pre-treatment, cells were incubated with varying concentrations of 5a, 5c, or 5d for 24 h and then media was replaced with fresh media and cells were incubated for an additional 48 h. Cell proliferation was measured using the Cell Counting Kit-8 by replacing the media in each well with 100 μL of media containing 10% WST-8. After incubation for 1 h at 37° C., absorbance at 450 nm was measured with a Synergy H4 microtiter plate reader. Cell proliferation was measured according to the method described in Section 1.3. Error bars represent the standard deviation of experiments performed in triplicate.
SMILES,IC50 (U87MG cells [1]) [nM],Potency / growth inhibition in U87MG cells (in words) (U87MG cells [2]),EC50 (U87MG cells [2]) [nM],"Effect of hENT1 inhibitor 6 on potency (ED50) (in words) (U87MG cells [3]; U87MG cells, increasing concentrations of 6 up to 10 μM)",Fold Increase in ED50 in U87MG Cells (U87MG cells [3]; [6] = 0 nM),Fold Increase in ED50 in U87MG Cells (U87MG cells [3]; [6] = 1 nM),Fold Increase in ED50 in U87MG Cells (U87MG cells [3]; [6] = 10 nM),Fold Increase in ED50 in U87MG Cells (U87MG cells [3]; [6] = 100 nM),Fold Increase in ED50 in U87MG Cells (U87MG cells [3]; [6] = 1000 nM),Fold Increase in ED50 in U87MG Cells (U87MG cells [3]; [6] = 10000 nM),Effect of integrin blocking by pre-treatment with 1 on potency (in words) (U87MG cells [4]),Binding affinity to U87MG cells (in words) (U87MG cells [1])
CC(C)C[C@@H]1NC(=O)[C@@H]2CSSC[C@@H](C(=O)NCC(=O)O)NC(=O)[C@H](Cc3ccccc3)NC(=O)CNC(=O)[C@H](CC(N)=O)NC(=O)[C@@H]3CCCN3C(=O)CNC(=O)[C@@H]3CSSC[C@H](NC(=O)[C@H]([C@@H](C)O)NC(=O)[C@H](CC(C)C)NC(=O)[C@@H]4CCCN4C(=O)[C@@H]4CCCN4C(=O)[C@H](CC(N)=O)NC(=O)[C@H](CC(=O)O)NC(=O)CNC(=O)[C@H](CCCNC(=N)N)NC(=O)[C@@H]4CCCN4C(=O)[C@H](CCCNC(=N)N)NC(=O)[C@@H]4CCCN4C(=O)[C@@H](NC(=O)CN)CSSC[C@H](NC(=O)CNC(=O)[C@H](C)NC1=O)C(=O)N[C@@H](C(C)C)C(=O)N3)C(=O)N[C@@H](CCCn1cc(CCCNC(=O)OC[C@H]3O[C@@H](n4ccc(N)nc4=O)C(F)(F)[C@@H]3O)nn1)C(=O)N[C@@H](CCC(N)=O)C(=O)N[C@@H](CC(=O)O)C(=O)N[C@@H](CO)C(=O)N[C@@H](CC(=O)O)C(=O)N2 [5b],3.3 ± 0.2,lacked significant potency,> 1000,,,,,,,,,
CC(C)C[C@@H]1NC(=O)[C@@H]2CSSC[C@@H](C(=O)NCC(=O)O)NC(=O)[C@H](Cc3ccccc3)NC(=O)CNC(=O)[C@H](CC(N)=O)NC(=O)[C@@H]3CCCN3C(=O)CNC(=O)[C@@H]3CSSC[C@H](NC(=O)[C@H]([C@@H](C)O)NC(=O)[C@H](CC(C)C)NC(=O)[C@@H]4CCCN4C(=O)[C@@H]4CCCN4C(=O)[C@H](CC(N)=O)NC(=O)[C@H](CC(=O)O)NC(=O)CNC(=O)[C@H](CCCNC(=N)N)NC(=O)[C@@H]4CCCN4C(=O)[C@H](CCCNC(=N)N)NC(=O)[C@@H]4CCCN4C(=O)[C@@H](NC(=O)CN)CSSC[C@H](NC(=O)CNC(=O)[C@H](C)NC1=O)C(=O)N[C@@H](C(C)C)C(=O)N3)C(=O)N[C@@H](CCCn1cc(CCC(=O)OC[C@H]3O[C@@H](n4ccc(N)nc4=O)C(F)(F)[C@@H]3O)nn1)C(=O)N[C@@H](CCC(N)=O)C(=O)N[C@@H](CC(=O)O)C(=O)N[C@@H](CO)C(=O)N[C@@H](CC(=O)O)C(=O)N2 [5a],5.2 ± 3.6,low-nanomolar ED50 values,8.5 ± 3.3,increased significantly,0,1.1 ± 0.5,3.2 ± 0.3,14.5 ± 0.5,17.9 ± 0.0,134.7 ± 0.4,did not diminish the potency,
"CC(C)C[C@@H]1NC(=O)[C@@H]2CSSC[C@@H](C(=O)NCC(=O)O)NC(=O)[C@H](Cc3ccccc3)NC(=O)CNC(=O)[C@H](CC(N)=O)NC(=O)[C@@H]3CCCN3C(=O)CNC(=O)[C@@H]3CSSC[C@H](NC(=O)[C@H]([C@@H](C)O)NC(=O)[C@H](CC(C)C)NC(=O)[C@@H]4CCCN4C(=O)[C@@H]4CCCN4C(=O)[C@H](CC(N)=O)NC(=O)[C@H](CC(=O)O)NC(=O)CNC(=O)[C@H](CCCNC(=N)N)NC(=O)[C@@H]4CCCN4C(=O)[C@H](CCCNC(=N)N)NC(=O)[C@@H]4CCCN4C(=O)[C@@H](NC(=O)CN)CSSC[C@H](NC(=O)CNC(=O)[C@H](C)NC1=O)C(=O)N[C@@H](C(C)C)C(=O)N3)C(=O)N[C@@H](CCCN=[N+]=[N-])C(=O)N[C@@H](CCC(N)=O)C(=O)N[C@@H](CC(=O)O)C(=O)N[C@@H](CO)C(=O)N[C@@H](CC(=O)O)C(=O)N2 [compound 2] (H-GCPRPRGDNPPLTC[Orn(N3)]QDSDCLAGCVCGPNGFCG-OH; disulfide 2-24, 14-26, 20-32; N-terminus and C-terminus assumed)",1.1 ± 1.8,did not show significant growth-inhibition activity,> 1000,,,,,,,,,low-nanomolar binding affinity
